pIC50: −log10 of the molar value.
How the values were obtained:
tau protein = molecular target: T1, tau protein (Homo sapiens, UniProt P10636); test: Tau-BiFC cell model: inhibition of tau protein aggregation; type: cell-based; settings: for remaining activity at 10 µM: 48 h, compound 10 μM, BiFC fluorescence, Forskolin-only group = 100% tau protein-aggregated state, read-out: Response (% @10 μM); for pIC50: Tau BiFC in cells, with Forskolin 30 μM, 48 hours
T1 construct: fused on or other part: Split fluorescent-protein halves for BiFC are fused to tau; In the published tau-BiFC line these are Venus VN173 and VC155
Protocol: (§1) In order to select novel tau protein aggregation-inhibiting substances, tau-BiFC cell model, in which formation of tau oligomers in living cells is easily observed, was used. Tau-BiFC cells were aliquoted into a 384-well plate. On the next day, the cells were treated with each of the compounds prepared according to Examples 1 to 175 at concentrations of 1 μM, 3 μM, and 10 μM, together with Forskolin (at a treatment concentration of 30 μM), which is a compound inducing tau protein aggregation by activating tau […] PKA. After 48 hours, nuclei in the cells were stained using Hoechst (at a treatment concentration of 2 μg/mL), and BiFC fluorescence intensity was automatically measured using Operetta (PerkinElmer) to count stained nuclei in each well out of the entire well plate. The group treated only with Forskolin, which induces tau protein aggregation, was set to a reference point of a 100% tau protein-aggregated state, and the effects of the compounds were confirmed using the equation “BiFC fluorescence intensity due to compound synthesized according to embodiment of present invention/(fluorescence intensity of control group treated only with Forskolin inducing tau protein aggregation−fluorescence intensity of untreated control group)×100”. Furthermore, the degree of cytotoxicity induced by the newly synthesized compound was also measured based on the 100% cell viability of the group treated only with Forskolin as a reference, and the cytotoxicity value of each compound was calculated using the equation “(number of stained nuclei in group treated with compound/number of stained nuclei in group treated with Forskolin)×100”. Based on the treatment results, substances inhibiting intracellular tau protein aggregation were selected from a series of candidate groups showing a tau protein aggregation inhibition rate of 70% or more and cell viability of 100% at a compound treatment concentration of 10 μM or more.
(§2) In order to evaluate dose-dependent tau protein aggregation inhibition effects of the compounds selected according to Experimental Example 1 on tau protein aggregation, tau-BiFC cells were treated with the selected compounds at concentrations of 0.03 μM, […], 0.3 μM, 1 μM, 3 μM, 10 μM, and 30 μM, respectively, together with Forskolin (at a treatment concentration of 30 μM), which is a tau protein aggregation inducing substance. After 48 hours, tau protein aggregation reaction and degrees of cytotoxicity were analyzed by observing images of the cells. IC50 and toxicity of the compounds were analyzed by way of nonlinear regression analysis of prism software (Graph Pad).

Tau-BiFC cells = test: Cell viability (cytotoxicity) in tau-BiFC cells, count of stained nuclei; type: cell-based; settings: compound 10 μM; Forskolin-only group = 100% cell viability
Protocol: as §1, §2

T1 sequence (P10636 2-441 isoform P10636-8 limits assumed): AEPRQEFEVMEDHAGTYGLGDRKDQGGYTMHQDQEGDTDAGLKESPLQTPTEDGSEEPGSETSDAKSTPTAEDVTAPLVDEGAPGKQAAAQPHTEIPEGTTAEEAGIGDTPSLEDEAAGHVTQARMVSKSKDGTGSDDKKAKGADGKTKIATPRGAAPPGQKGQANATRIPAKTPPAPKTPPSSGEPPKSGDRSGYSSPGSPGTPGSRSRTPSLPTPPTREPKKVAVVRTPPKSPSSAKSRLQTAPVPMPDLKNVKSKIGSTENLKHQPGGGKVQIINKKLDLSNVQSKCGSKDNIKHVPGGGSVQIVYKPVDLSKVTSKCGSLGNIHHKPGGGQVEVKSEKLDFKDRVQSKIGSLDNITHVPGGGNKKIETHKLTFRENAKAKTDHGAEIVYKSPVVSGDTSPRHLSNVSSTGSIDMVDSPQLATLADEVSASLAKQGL

SMILES: Cc1ccc(NC(=O)c2ccc(NN=C(C#N)C#N)cc2)cn1 [Compound 47, (4-(6-methylpyridin-3-ylcarbamoyl)phenyl)carbonohydrazonoyl dicyanide]
- remaining activity at 10 µM (tau protein): 0%
- pIC50 (tau protein): 5.59
- Cell viability (% @10 μM) (Tau-BiFC cells): 122.7%

SMILES: Cc1cncc(NC(=O)c2ccc(NN=C(C#N)C#N)cc2)c1 [Compound 48, (4-(5-methylpyridin-3-ylcarbamoyl)phenyl)carbonohydrazonoyl dicyanide]
- remaining activity at 10 µM (tau protein): 0%
- Cell viability (% @10 μM) (Tau-BiFC cells): 122.3%

SMILES: N#CC(C#N)=NNc1ccc(C(=O)Nc2cccnc2)cc1 [Compound 49, (4-(pyridin-3-ylcarbamoyl)phenyl)carbonohydrazonoyl dicyanide]
- remaining activity at 10 µM (tau protein): 75.9%
- Cell viability (% @10 μM) (Tau-BiFC cells): 117.2%

SMILES: N#CC(C#N)=NNc1ccc(C(=O)Nc2cncnc2)cc1 [Compound 50, (4-(pyrimidin-5-ylcarbamoyl)phenyl)carbonohydrazonoyl dicyanide]
- remaining activity at 10 µM (tau protein): 86.6%
- Cell viability (% @10 μM) (Tau-BiFC cells): 116.4%

SMILES: COc1cc(C(=O)Nc2cnc(C)cn2)ccc1NN=C(C#N)C#N [Compound 51, (2-methoxy-4-(5-methylpyrazin-2-ylcarbamoyl)phenyl)carbonohydrazonoyl dicyanide]
- remaining activity at 10 µM (tau protein): 45.4%
- Cell viability (% @10 μM) (Tau-BiFC cells): 107.1%

SMILES: Cc1cnc(NC(=O)c2ccc(NN=C(C#N)C#N)cc2C)cn1 [Compound 52, (3-methyl-4-(5-methylpyrazin-2-ylcarbamoyl)phenyl)carbonohydrazonoyl dicyanide]
- remaining activity at 10 µM (tau protein): 24%
- Cell viability (% @10 μM) (Tau-BiFC cells): 120.2%

SMILES: Cc1ccc(NC(=O)c2ccc(NN=C(C#N)C#N)cc2C)cn1 [Compound 53, (3-methyl-4-(6-methylpyridin-3-ylcarbamoyl)phenyl)carbonohydrazonoyl dicyanide]
- remaining activity at 10 µM (tau protein): 22.9%
- Cell viability (% @10 μM) (Tau-BiFC cells): 116.1%

SMILES: Cc1cncc(NC(=O)c2ccc(NN=C(C#N)C#N)cc2C)n1 [Compound 54, (3-methyl-4-(6-methylpyrazin-2-ylcarbamoyl)phenyl)carbonohydrazonoyl dicyanide]
- remaining activity at 10 µM (tau protein): 8.3%
- Cell viability (% @10 μM) (Tau-BiFC cells): 116%

SMILES: Cc1ccc(NC(=O)c2ccc(NN=C(C#N)C#N)c(C)c2)cn1 [Compound 55, (2-methyl-4-(6-methylpyridin-3-ylcarbamoyl)phenyl)carbonohydrazonoyl dicyanide]
- remaining activity at 10 µM (tau protein): 65.6%
- Cell viability (% @10 μM) (Tau-BiFC cells): 116.1%

SMILES: Cc1cnc(NC(=O)c2ccc(NN=C(C#N)C#N)c(F)c2)cn1 [Compound 56, (2-fluoro-4-(5-methylpyrazin-2-ylcarbamoyl)phenyl)carbonohydrazonoyl dicyanide]
- remaining activity at 10 µM (tau protein): 0%
- pIC50 (tau protein): 5.73
- Cell viability (% @10 μM) (Tau-BiFC cells): 129.9%

SMILES: COc1cc(C(=O)Nc2ccc(C)nc2)ccc1NN=C(C#N)C#N [Compound 57, (2-methoxy-4-(6-methylpyridin-3-ylcarbamoyl)phenyl)carbonohydrazonoyl dicyanide]
- remaining activity at 10 µM (tau protein): 51.7%
- Cell viability (% @10 μM) (Tau-BiFC cells): 108.6%

SMILES: N#CC(C#N)=NNc1ccc(NS(=O)(=O)c2ccccc2)nc1 [Compound 58, (6-(phenylsulfonamido)pyridin-3-yl)carbonohydrazonoyl dicyanide]
- remaining activity at 10 µM (tau protein): 51.4%
- Cell viability (% @10 μM) (Tau-BiFC cells): 113.5%

SMILES: COc1ccc(S(=O)(=O)Nc2ccc(NN=C(C#N)C#N)cn2)cc1 [Compound 59, (6-(4-methoxyphenylsulfonamido)pyridin-3-yl)carbonohydrazonoyl dicyanide]
- remaining activity at 10 µM (tau protein): 74.3%
- Cell viability (% @10 μM) (Tau-BiFC cells): 128.2%

SMILES: N#CC(C#N)=NNc1ccc(NS(=O)(=O)c2cccnc2)nc1 [Compound 60, (6-(pyridin-3-sulfonamido)pyridin-3-yl)carbonohydrazonoyl dicyanide]
- remaining activity at 10 µM (tau protein): 90.2%
- Cell viability (% @10 μM) (Tau-BiFC cells): 116.9%

SMILES: Cn1cc(S(=O)(=O)Nc2ccc(NN=C(C#N)C#N)cn2)cn1 [Compound 61, (6-(1-methyl-1H-pyrazole-4-sulfonamido)pyridin-3-yl)carbonohydrazonoyl dicyanide]
- remaining activity at 10 µM (tau protein): 109%
- Cell viability (% @10 μM) (Tau-BiFC cells): 112.7%

SMILES: N#CC(C#N)=NNc1ccc(NS(=O)(=O)c2cccs2)nc1 [Compound 62, (6-(thiophene-2-sulfonamido)pyridin-3-yl)carbonohydrazonoyl dicyanide]
- remaining activity at 10 µM (tau protein): 87.3%
- Cell viability (% @10 μM) (Tau-BiFC cells): 116.5%

SMILES: Cc1ccc(S(=O)(=O)Nc2ccc(NN=C(C#N)C#N)cn2)cc1 [Compound 63, (6-(4-methylphenylsulfonamido)pyridin-3-yl)carbonohydrazonoyl dicyanide]
- remaining activity at 10 µM (tau protein): 11.5%
- Cell viability (% @10 μM) (Tau-BiFC cells): 136.7%

SMILES: N#CC(C#N)=NNc1ccc(NS(=O)(=O)c2ccc(F)cc2)nc1 [Compound 64, (6-(4-fluorophenylsulfonamido)pyridin-3-yl)carbonohydrazonoyl dicyanide]
- remaining activity at 10 µM (tau protein): 56%
- Cell viability (% @10 μM) (Tau-BiFC cells): 114.2%

SMILES: Cc1ccc(NS(=O)(=O)c2ccc(NN=C(C#N)C#N)cc2)cn1 [Compound 65, (4-(N-(6-methylpyridin-3-yl)sulfamoyl)phenyl)carbonohydrazonoyl dicyanide]
- remaining activity at 10 µM (tau protein): 72.6%
- Cell viability (% @10 μM) (Tau-BiFC cells): 111.4%

SMILES: COc1ccc(NS(=O)(=O)c2ccc(NN=C(C#N)C#N)cc2)cc1 [Compound 66, (4-(N-(4-methoxyphenyl)sulfamoyl)phenyl)carbonohydrazonoyl dicyanide]
- remaining activity at 10 µM (tau protein): 61.2%
- Cell viability (% @10 μM) (Tau-BiFC cells): 123.9%

SMILES: Cc1cnc(NS(=O)(=O)c2ccc(NN=C(C#N)C#N)cc2)cn1 [Compound 67, (4-(N-(5-methylpyrazin-2-yl)sulfamoyl)phenyl)carbonohydrazonoyl dicyanide]
- remaining activity at 10 µM (tau protein): 68.2%
- Cell viability (% @10 μM) (Tau-BiFC cells): 108.4%

SMILES: N#CC(C#N)=NNc1ccc(Oc2ccccc2)cn1 [Compound 70, (5-phenoxypyridin-2-yl)carbonohydrazonoyl dicyanide]
- remaining activity at 10 µM (tau protein): 0%
- pIC50 (tau protein): 6.51
- Cell viability (% @10 μM) (Tau-BiFC cells): 94.5%

SMILES: N#CC(C#N)=NNc1ccc(Oc2ccccc2)c(F)c1 [Compound 71, (3-fluoro-4-phenoxyphenyl)carbonohydrazonoyl dicyanide]
- remaining activity at 10 µM (tau protein): 0%
- Cell viability (% @10 μM) (Tau-BiFC cells): 46%

SMILES: N#CC(C#N)=NNc1ccc(Oc2cccnc2)c(F)c1 [Compound 72, (3-fluoro-4-(pyridin-3-yloxy)phenyl)carbonohydrazonoyl dicyanide]
- remaining activity at 10 µM (tau protein): 0%
- pIC50 (tau protein): 5.70
- Cell viability (% @10 μM) (Tau-BiFC cells): 129.5%

SMILES: N#CC(C#N)=NNc1ccc(Oc2ccccc2)c(C(F)(F)F)c1 [Compound 73, (4-phenoxy-3-(trifluoromethyl)phenyl)carbonohydrazonoyl dicyanide]
- remaining activity at 10 µM (tau protein): 0%
- Cell viability (% @10 μM) (Tau-BiFC cells): 49.6%

SMILES: Cc1cc(NN=C(C#N)C#N)ccc1Oc1cccnc1 [Compound 74, (3-methyl-4-(pyridin-3-yloxy)phenyl)carbonohydrazonoyl dicyanide]
- remaining activity at 10 µM (tau protein): 0%
- pIC50 (tau protein): 6.36
- Cell viability (% @10 μM) (Tau-BiFC cells): 92.7%

SMILES: CN(N=C(C#N)C#N)c1ccc(Oc2ccccc2)cn1 [Compound 75, methyl(5-phenoxypyridin-2-yl)carbonohydrazonoyl dicyanide]
- remaining activity at 10 µM (tau protein): 102%
- Cell viability (% @10 μM) (Tau-BiFC cells): 131.4%

SMILES: CN(N=C(C#N)C#N)c1ccc(Oc2cccc(F)c2)nc1 [Compound 76, (6-(3-fluorophenoxy)pyridin-3-yl)(methyl)carbonohydrazonoyl dicyanide]
- remaining activity at 10 µM (tau protein): 79.9%
- Cell viability (% @10 μM) (Tau-BiFC cells): 121.7%

SMILES: CN(N=C(C#N)C#N)c1ccc(Oc2ccccc2)c(F)c1 [Compound 77, (3-fluoro-4-phenoxyphenyl)(methyl)carbonohydrazonoyl dicyanide]
- remaining activity at 10 µM (tau protein): 84.8%
- Cell viability (% @10 μM) (Tau-BiFC cells): 91.6%

SMILES: CN(N=C(C#N)C#N)c1ccc(Oc2ccccc2)c(C(F)(F)F)c1 [Compound 78, methyl(4-phenoxy-3-(trifluoromethyl)phenyl)carbonohydrazonoyl dicyanide]
- remaining activity at 10 µM (tau protein): 69.6%
- Cell viability (% @10 μM) (Tau-BiFC cells): 74%

SMILES: Cc1cc(NN=C(C#N)C#N)ccc1Oc1ccncc1 [Compound 79, (3-methyl-4-(pyridin-4-yloxy)phenyl)carbonohydrazonoyl dicyanide]
- remaining activity at 10 µM (tau protein): 65.9%
- Cell viability (% @10 μM) (Tau-BiFC cells): 115.7%

SMILES: N#CC(C#N)=NNc1ccc(Oc2ccncc2)c(F)c1 [Compound 80, (3-fluoro-4-(pyridin-4-yloxy)phenyl)carbonohydrazonoyl dicyanide]
- remaining activity at 10 µM (tau protein): 68%
- Cell viability (% @10 μM) (Tau-BiFC cells): 112.3%

Reference: US12649723B2, “Carbonohydrazonoyl dicyanide compounds comprising 2 or more aryl or heteroaryl connected via linker and use thereof” (KOREA INSTITUTE OF SCIENCE AND TECHNOLOGY, priority 2020, dated 2026)
